Consider 31 compounds from patent publication US6967196B1, “Sulfonamide compounds and uses thereof” (Bristol-Myers Squibb Company, priority 1999, dated 2005).

pIC50: −log10 of the molar value. Where a name gives a salt, the structure may show the parent alone.

One assay deals with amyloid β production in transfected H4 (human neuroglioma) cells stably expressing APP constructs. In words: In vitro cell-based assay of inhibitors of amyloid β production (ELISA). Particulars: Homo sapiens, 16 h, transfected H4 cells stably expressing APP; approximately 16 hours incubation; amyloid β in medium by ELISA; Table B; read-out: ACTIVITY (IC50, inhibition of amyloid β production). The gist of the method: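 Sandwich ELISA read-out: Aβ in conditioned medium captured via C-terminal epitope mAb, detected with N-terminus-specific rabbit polyclonal, quantified from a standard curve. Compounds 10-100 μM, ~16 h exposure. Active = ≥50% inhibition vs control without significant cytotoxicity; dose-response follows.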
A word on the pIC50: it is −log10 of the IC50, conventionally taken in molar units. As to `C[C@H](c1ccc(F)cc1COCc1cccnc1)N(c1cc(F)ccc1F)S(=O)(=O)c1ccc(Cl)cc1` [Example 380, 4-chloro-N-(2,5-difluorophenyl)-N-((1R)-1-{4-fluoro-2-[(3-pyridinylmethoxy)methyl]phenyl}ethyl)benzenesulfonamide], the negative-log IC50 (pIC50) is 7.00 to 7.30.
Same read-out and setting: the value for `CC(c1ccccc1OCCCCN(C)C(=O)CSc1ccccc1)N(c1cc(F)ccc1F)S(=O)(=O)c1ccc(Cl)cc1` (stereo not shown) [Example 384, N-{4-[2-(1-{[(4-chlorophenyl)sulfonyl]-2,5-difluoroanilino}ethyl)phenoxy]butyl}-N-methyl-2-(phenylsulfanyl)acetamide] was 7.00 to 7.30; that for `CC(NC(=O)OCCc1cc(F)ccc1[C@@H](C)N(c1cc(F)ccc1F)S(=O)(=O)c1ccc(Cl)cc1)c1ccccc1` (stereo partly drawn) [Example 385, 2-[2-((1R)-1-{[(4-chlorophenyl)sulfonyl]-2,5-difluoroanilino}ethyl)-5-fluorophenyl]ethyl 1 phenylethylcarbamate] was 7.00 to 7.30; that for `CC(c1ccccc1OCCCN(C)C(=O)C12CCC(C)(C(=O)O1)C2(C)C)N(c1cc(F)ccc1F)S(=O)(=O)c1ccc(Cl)cc1` (stereo not shown) [Example 387, N-{3-[2-(1-{[(4-chlorophenyl)sulfonyl]-2,5-difluoroanilino}ethyl)phenoxy]propyl}-N,4,7,7-tetramethyl-3-oxo-2-oxabicyclo[2.2.1]heptane-1-carboxamide] was 7.00 to 7.30.
Take `C[C@H](c1ccccc1CCC(=O)NCc1ccc2c(c1)OCO2)N(c1cc(F)ccc1F)S(=O)(=O)c1ccc(Cl)cc1` [Example 388, N-(1,3-benzodioxol-5-ylmethyl)-3-[2-((1R)-1-{[(4-chlorophenyl)sulfonyl]-2,5-difluoroanilino}ethyl)phenyl]propanamide]: the pIC50 is 7.00 to 7.30.
On to `C[C@H](c1ccccc1CCOC(=O)NCc1ccccc1)N(c1cc(F)ccc1F)S(=O)(=O)c1ccc(Cl)cc1` [Example 389, 2-[2-((1R)-1-{[(4-chlorophenyl)sulfonyl]-2,5-difluoroanilino}ethyl)phenyl]ethyl benzylcarbamate], for which the pIC50 was 7.00 to 7.30.
Same read-out and setting: the value for `C[C@H](c1ccccc1Cn1ncnn1)N(c1cc(F)ccc1F)S(=O)(=O)c1ccc(Cl)cc1` [Example 396] was 7.00 to 7.30; that for `CC(c1ccccc1OCCN(C)C(=O)N(C)C)N(c1cc(F)ccc1F)S(=O)(=O)c1ccc(Cl)cc1` (stereo not shown) [Example 397, 4-chloro-N-(2,5-difluorophenyl)-N-[1-(2-{2-[[(dimethylamino)carbonyl](methyl)amino]ethoxy}phenyl)ethyl]benzenesulfonamide] was 7.00 to 7.30; that for `CC(C)CNC(=O)OCc1cc(F)ccc1[C@@H](C)N(c1cc(F)ccc1F)S(=O)(=O)c1ccc(Cl)cc1` [Example 398, 2-((1R)-1-{[(4-chlorophenyl)sulfonyl]-2,5-difluoroanilino}ethyl)-5-fluorobenzyl isobutylcarbamate] was 7.00 to 7.30.
For the compound `O=C1CCC(=O)N1CCCOc1ccccc1CN(c1cc(F)ccc1F)S(=O)(=O)c1ccc(Cl)cc1` [Example 399, 4-chloro-N-(2,5-difluorophenyl)-N-{2-[3-(2,5-dioxo-1-pyrrolidinyl)propoxy]benzyl}benzenesulfonamide], the pIC50 was 7.00 to 7.30.
For `C[C@H](c1ccc(F)cc1COCc1ccccn1)N(c1cc(F)ccc1F)S(=O)(=O)c1ccc(Cl)cc1` [Example 400, 4-chloro-N-(2,5-difluorophenyl)-N-((1R)-1-{4-fluoro-2-[(2-pyridinylmethoxy)methyl]phenyl}ethyl)benzenesulfonamide], the pIC50 is 7.00 to 7.30.
Regarding `C[C@H](c1ccccc1CCC(=O)NC1CCCCC1)N(c1cc(F)ccc1F)S(=O)(=O)c1ccc(Cl)cc1` [Example 401, 3-[2-((1R)-1-{[(4-chlorophenyl)sulfonyl]-2,5-difluoroanilino}ethyl)phenyl]-N-cyclohexylpropanamide], the pIC50 was 7.00 to 7.30.
On the same count and under the same terms, as for `CC(CNC(=O)OCCc1ccccc1[C@@H](C)N(c1cc(F)ccc1F)S(=O)(=O)c1ccc(Cl)cc1)c1ccccc1` (stereo partly drawn) [Example 402, 2-[2-((1R)-1-{[(4-chlorophenyl)sulfonyl]-2,5-difluoroanilino}ethyl)phenyl]ethyl 2-phenylpropylcarbamate], the figure is 7.00 to 7.30; as for `C[C@H](c1ccccc1CCC(=O)Nc1ccccc1)N(c1cc(F)ccc1F)S(=O)(=O)c1ccc(Cl)cc1` [Example 403, 3-[2-((1R)-1-{[(4-chlorophenyl)sulfonyl]-2,5-difluoroanilino}ethyl)phenyl]-N-phenylpropanamide], 7.00 to 7.30.

Still in this assay, the particulars now being: transfected H4 cells stably expressing APP; approximately 16 hours incubation; amyloid β in medium by ELISA; Table B; Hydrochloride; read-out: ACTIVITY (IC50, inhibition of amyloid β production).
Take `O=S1(=O)CCN(CCCOc2ccccc2CN(c2ccccc2)S(=O)(=O)c2ccc(Cl)cc2)CC1` [Example 313, 4-Chloro-N-{2-[3-(1,1-dioxido-4-thiomorpholinyl)propoxy]benzyl}-N-phenylbenzenesulfonamide Hydrochloride]: the pIC50 is 7.00 to 7.30.

Staying with this assay, now noted: transfected H4 cells stably expressing APP; approximately 16 hours incubation; amyloid β in medium by ELISA; Table B; read-out: ACTIVITY (IC50, inhibition of amyloid β production).
On to `O=C1CCN(CCCOc2ccccc2CN(c2ccccc2)S(=O)(=O)c2ccc(Cl)cc2)CC1` [Example 307, 4-Chloro-N-{2-[3-(4-oxo-1-piperidinyl)propoxy]benzyl}-N-phenylbenzenesulfonamide Hydrochloride], for which the pIC50 was 7.00 to 7.30.
Same read-out and setting: as for `O=S(=O)(c1ccc(Cl)cc1)N(Cc1cc(Cl)ccc1OCCCN1CCC(O)CC1)c1ccccc1` [Example 309, 4-Chloro-N-{5-chloro-2-[3-(4-hydroxy-1-piperidinyl)propoxy]benzyl}-N-phenylbenzenesulfonamide Hydrochloride], the figure is 7.00 to 7.30; as for `O=S(=O)(c1ccc(Cl)cc1)N(Cc1ccccc1OCCCN1CCCC(O)C1)c1ccccc1` (stereo not shown) [Example 310, 4-Chloro-N-{2-[3-(3-hydroxy-1-piperidinyl)propoxy]benzyl}-N-phenylbenzenesulfonamide Hydrochloride], 7.00 to 7.30; as for `O=S(=O)(c1ccc(Cl)cc1)N(Cc1ccccc1OCCCN1CCC(CO)CC1)c1ccccc1` [Example 311, 4-Chloro-N-(2-{3-[4-(hydroxymethyl)-1-piperidinyl]propoxy}benzyl)-N-phenylbenzenesulfonamide Hydrochloride], 7.00 to 7.30.
The same measure, in the same setting: the value for `CC1(O)CCN(CCCOc2ccccc2CN(c2ccccc2)S(=O)(=O)c2ccc(Cl)cc2)CC1` [Example 312, 4-Chloro-N-{2-[3-(4-hydroxy-4-methyl-1-piperidinyl)propoxy]benzyl}-N-phenylbenzenesulfonamide Hydrochloride] was 7.00 to 7.30; that for `CC(c1ccccc1OCCCn1ccnc1)N(c1cc(F)ccc1F)S(=O)(=O)c1ccc(Cl)cc1` (stereo not shown) [Example 321, 4-Chloro-N-(2,5-difluorophenyl)-N-1-{2-[3-(1H-imidazol-1-yl)propoxy]phenyl}ethyl)benzenesulfonamide Hydrochloride] was 7.00 to 7.30.
Regarding `CC(=O)SCCCOc1ccccc1CN(c1ccccc1)S(=O)(=O)c1ccc(Cl)cc1` [Example 341, S{3-[2-({[(4-chlorophenyl)sulfonyl]anilino}methyl)phenoxy]propyl}ethanethioate], the pIC50 is 7.00 to 7.30.
Take `CC(c1ccccc1OCCCNC(=O)c1cccnc1)N(c1cc(F)ccc1F)S(=O)(=O)c1ccc(Cl)cc1` (stereo not shown) [Example 359, N-{3-[2-(1-{[(4-chlorophenyl)sulfonyl]-2,5-difluoroanilino}ethyl)phenoxy]propyl}nicotinamide]: the pIC50 was 7.00 to 7.30.
Take `CC(c1ccccc1OCCCN(C)C(=O)c1cccnc1)N(c1cc(F)ccc1F)S(=O)(=O)c1ccc(Cl)cc1` (stereo not shown) [Example 360, N-{3-[2-(1-{[(4-chlorophenyl)sulfonyl]-2,5-difluoroanilino}ethyl)phenoxy]propyl}-N-methylnicotinamide]: the pIC50 is 7.00 to 7.30.
Take `C[C@H](c1ccccc1OCCCN(C)C(=O)c1cccnc1)N(c1cc(F)ccc1F)S(=O)(=O)c1ccc(Cl)cc1` [Example 363, N-{3-[2-((1R)-1-{[(4-chlorophenyl)sulfonyl]-2,5-difluoroanilino}ethyl)phenoxy]propyl}-N-methylnicotinamide Hydrochloride]: the pIC50 is 7.00 to 7.30.
As for `CN(CCCOc1ccccc1CN(c1cc(F)ccc1F)S(=O)(=O)c1ccc(Cl)cc1)C(=O)CCCCCN` [Example 366, 6-Amino-N-{3-[2-({[(4-chlorophenyl)sulfonyl]-2,5-difluoroanilino}methyl)phenoxy]propyl]-N-methylhexanamide Hydrochloride], the pIC50 was 7.00 to 7.30.
Consider `CC(c1ccccc1OCCCC(=O)O)N(c1cc(F)ccc1F)S(=O)(=O)c1ccc(Cl)cc1` (stereo not shown) [Example 377, 4-[2-(1-{[(4-Chlorophenyl)sulfonyl]-2,5-difluoroanilino}ethyl)phenoxy]butanoic Acid], for which the pIC50 was 7.00 to 7.30.
With `CNC(=O)CCCOc1ccccc1C(C)N(c1cc(F)ccc1F)S(=O)(=O)c1ccc(Cl)cc1` (stereo not shown) [Example 378, 4-[2-(1-{[(4-Chlorophenyl)sulfonyl]-2,5-difluoroanilino}ethyl)phenoxy]-N-methylbutanamide], the pIC50 is 7.00 to 7.30.
For the compound `CONC(=O)CCCOc1ccccc1C(C)N(c1cc(F)ccc1F)S(=O)(=O)c1ccc(Cl)cc1` (stereo not shown) [Example 379, 4-[2-(1-{[(4-Chlorophenyl)sulfonyl]-2,5-difluoroanilino}ethyl)phenoxy]-N-methoxybutanamide], the pIC50 is 7.00 to 7.30.
Regarding `CNC(=O)COc1ccccc1C(C)N(c1cc(F)ccc1F)S(=O)(=O)c1ccc(Cl)cc1` (stereo not shown) [Example 381, [2-(1-{[(4-Chlorophenyl)sulfonyl]-2,5-difluoroanilino}ethyl)phenoxy]-N-methylacetamide], the pIC50 is 7.00 to 7.30.
As for `CONC(=O)COc1ccccc1C(C)N(c1cc(F)ccc1F)S(=O)(=O)c1ccc(Cl)cc1` (stereo not shown) [Example 382, [2-(1-{[(4-Chlorophenyl)sulfonyl]-2,5-difluoroanilino}ethyl)phenoxy]-N-methoxyacetamide], the pIC50 is 7.00 to 7.30.
